Measured values as given in patent US20040247577A1, “Method and composition for inhibiting heparanase activity” (priority 2001, published 2004).
Values belong to the molecule of their own block, whether it stands above or below them.

Experiments:
lung metastasis = details: cited from earlier work; for tumor growth and angiogenesis: Parish et al. 1999; for incidence of lung metastasis: experimental animals
mouse heparanase = biological target: T1, mouse heparanase (Mus musculus, UniProt Q6YGZ1); experiment: Inhibition of recombinant mouse heparanase activity; format: biochemical
T1 construct: heterodimer of the 50 kDa polypeptide (Lys^150-Ile^535) and the 8 kDa peptide (Asp^28-Lys^100); made in house
T1 sequence (Q6YGZ1 150-535): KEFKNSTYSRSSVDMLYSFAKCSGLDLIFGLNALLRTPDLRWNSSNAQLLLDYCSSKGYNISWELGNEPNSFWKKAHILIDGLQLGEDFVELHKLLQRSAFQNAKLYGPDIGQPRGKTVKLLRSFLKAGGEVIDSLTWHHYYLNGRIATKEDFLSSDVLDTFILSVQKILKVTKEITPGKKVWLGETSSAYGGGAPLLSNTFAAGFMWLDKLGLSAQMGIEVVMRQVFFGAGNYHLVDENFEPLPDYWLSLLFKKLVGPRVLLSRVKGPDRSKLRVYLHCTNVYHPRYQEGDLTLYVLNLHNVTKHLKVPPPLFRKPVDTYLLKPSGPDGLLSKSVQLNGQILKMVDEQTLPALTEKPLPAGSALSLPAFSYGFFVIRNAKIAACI
T1 sequence (Q6YGZ1 28-100): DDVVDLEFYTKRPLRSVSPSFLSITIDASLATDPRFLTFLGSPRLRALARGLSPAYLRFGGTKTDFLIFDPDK
Description: (§1) Polypeptide samples were mixed with 25 μl of ^35S-ECM-HSPG (a generous gift from Dr. Israel Vlodavsky, The Hadassah-Hebrew University Hospital, Jerusalem, Israel) in a buffer containing 0.1 M sodium acetate, pH 5.0, 0.01% Triton X-100. After overnight incubation at 37° C., the samples were loaded onto a Superose 12 column (0.7×25 cm, 0.5 ml/min) and the radioactivity of the fractions (0.25 ml/fraction) were measured in a β-scintillation counter. The enzymatic activity was also studied for the ability to degrade HS. For this purpose, ^3H-HS-Sepharose (6.25 nM) was substituted as the substrate in the heparanase reaction, and the radioactivity released into the reaction buffer after overnight incubation was determined.

human heparanase = biological target: T2, human heparanase (Homo sapiens, UniProt Q9Y251); details: cited from earlier work
T2 sequence (Q9Y251 158-543): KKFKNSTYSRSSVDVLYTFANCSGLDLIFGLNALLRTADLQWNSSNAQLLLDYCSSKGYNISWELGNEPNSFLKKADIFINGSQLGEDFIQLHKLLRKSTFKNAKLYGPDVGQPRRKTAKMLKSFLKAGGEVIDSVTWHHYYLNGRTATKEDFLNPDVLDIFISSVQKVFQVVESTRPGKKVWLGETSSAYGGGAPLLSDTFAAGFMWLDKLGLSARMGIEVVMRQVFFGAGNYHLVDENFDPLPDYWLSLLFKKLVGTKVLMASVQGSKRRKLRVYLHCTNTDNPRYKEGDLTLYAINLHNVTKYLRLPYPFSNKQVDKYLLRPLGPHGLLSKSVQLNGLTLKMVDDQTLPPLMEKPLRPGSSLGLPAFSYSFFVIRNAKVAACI
T2 sequence (Q9Y251 36-109): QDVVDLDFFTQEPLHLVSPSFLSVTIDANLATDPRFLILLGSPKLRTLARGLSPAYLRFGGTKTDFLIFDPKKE

[1] = Enzymatic activity of heparanase on radiolabeled HSPG / HS substrates; format: biochemical
Description: as §1, with “Israel Vlodavsky, The Hadassah-Hebrew University Hospital, Jerusalem, Israel) in a buffer containing 0.1 M sodium acetate, pH 5.0, 0.01% Triton X-100.” left out
To test whether the recombinant mouse heparanase is enzymatically active, purified polypeptide was incubated with metabolically radiolabeled HSPG. The reaction products were analyzed by gel filtration on a Superose 12 column.

Molecule: heparin
- inhibition of mouse heparanase enzyme activity (in words) (mouse heparanase): inhibited

Molecule: mannopentaose phosphate sulfate [PI-88]
- tumor growth and angiogenesis (lung metastasis): markedly reduced
- incidence of lung metastasis (lung metastasis): markedly reduced

Second part, led by results:

- IC50 (mouse heparanase): 50 nM
- inhibition of mouse heparanase activity at 1 μM (mouse heparanase; 1 μM): completely inhibited
Molecule: Laminarin sulfate
- tumor growth and angiogenesis (lung metastasis): markedly reduced
- incidence of lung metastasis (lung metastasis): markedly reduced
- tumor metastasis in vivo (lung metastasis; in vivo): inhibit
- human heparanase activity in vitro (human heparanase): inhibit

- pH at which the enzyme was most active ([1]; ^3H-HS at various pH conditions): 5.0
- additional enzyme necessary for comparable activity ([1]; pH 7.5 compared with pH 5.0): ~10 fold
B1: mouse heparanase: Recombinant full-length mouse heparanase polypeptide of 535 amino acids, mature form a heterodimer of 50 kDa and 8 kDa (protein, UniProt Q6YGZ1 1-535, looked up)
chain: MLRLLLLWLWGPLGALAQGAPAGTAPTDDVVDLEFYTKRPLRSVSPSFLSITIDASLATDPRFLTFLGSPRLRALARGLSPAYLRFGGTKTDFLIFDPDKEPTSEERSYWKSQVNHDICRSEPVSAAVLRKLQVEWPFQELLLLREQYQKEFKNSTYSRSSVDMLYSFAKCSGLDLIFGLNALLRTPDLRWNSSNAQLLLDYCSSKGYNISWELGNEPNSFWKKAHILIDGLQLGEDFVELHKLLQRSAFQNAKLYGPDIGQPRGKTVKLLRSFLKAGGEVIDSLTWHHYYLNGRIATKEDFLSSDVLDTFILSVQKILKVTKEITPGKKVWLGETSSAYGGGAPLLSNTFAAGFMWLDKLGLSAQMGIEVVMRQVFFGAGNYHLVDENFEPLPDYWLSLLFKKLVGPRVLLSRVKGPDRSKLRVYLHCTNVYHPRYQEGDLTLYVLNLHNVTKHLKVPPPLFRKPVDTYLLKPSGPDGLLSKSVQLNGQILKMVDEQTLPALTEKPLPAGSALSLPAFSYGFFVIRNAKIAACI
modifications: full-length
notes: Recombinant full-length mouse heparanase polypeptide of 535 amino acids, mature form a heterodimer of 50 kDa and 8 kDa
- enzymatic activity at pH 4.0 or 8.0 ([1]; pH 4.0 or 8.0): Little or no enzymatic activity was detected
- amount of heparanase giving maximal degradation of 6.25 nmole ^3H-HS ([1]; pH 5.0): 50 ng
- degradation of ^35S-HSPG, elution profile on Superose 12 column ([1]; undigested substrate eluted in fractions 5-15): eluted as low-MW fragments in later fractions (16-35)
